Results as given in patent US10888549B2, “Pharmaceutical agents targeting cancer stem cells” (THE JOHNS HOPKINS UNIVERSITY, priority 2016, dated 2021).

Key:
MIRLET7BHG promoter = assay: Bisulfite sequencing of let-7 host gene promoter; type: cell-based, human; conditions: bladder cancer cells
Description: Cell pellets were digested with 1% sodium dodecyl sulfate and 50 μg/mL proteinase K (Roche, Nutley, USA) at 48° C. overnight. Isolation of genomic DNA from cell lines was performed with the phenol-chloroform extraction protocol followed by ethanol precipitation. Bisulfite treatment was conducted using an EpiTect Bisulfite Kit (QIAGEN, Valencia, USA), and was subsequently amplified via PCR using primers as shown in the following table. PCR products were purified using the QIAquick Gel Extraction kit (Qiagen), and sequenced by Genewiz DNA sequencing service (Genewiz, South Plainfield, USA). The data were analyzed using the Sequence Scanner v1.0 software (Life technologies). A methylation frequency of ≥50% of total CpG sites within the amplified region was considered “methylation-positive”. For demethylation, cells (1×10^6/T-75 flask) were treated with […] of the demethylating agent 5-Aza-dC (Sigma) dissolved in 50% acetic acid or were mock-treated with phosphate buffered saline (PBS) including the same amount of acetic acid every 24 hours for 5 days. When combined with the histone deacetylase inhibitor TSA (Sigma), 300 nmol/L TSA was added to the medium for the final 24 hours.

let-7 = let-7 expression by Q-RT-PCR; type: cell-based, human; conditions: parental or spheroid bladder cancer cells
Description: Total RNA from cell lines was isolated using the RNeasy Plus Mini kit (Qiagen, Valencia, USA) according to the manufacturer's protocol. Total RNA extraction from bladder tissue was performed with the QIAzol Lysis Reagent (Qiagen) followed by phenol extraction and ethanol precipitation. Total RNA was eluted in DEPC treated water and stored at -80° C. Total RNA extraction from urine was performed using the […] Isolation Kit (Ambion, Austin, USA). These total RNA were converted to cDNA using the SuperScript III First-Strand Synthesis System (Life technologies, Carlsbad, USA), which was then used as a template for Q-RT-PCR. Q-RT-PCR was performed using the Fast SYBR Green Master Mix (Thermo Fisher Scientific, Waltham, USA) on a 7900HT Fast Real-Time PCR System (Life technologies) in triplicate. Micro RNA (miRNA) extraction was performed using the […] Isolation Kit, and was reverse transcribed using TaqMan reverse transcription kit (Applied Biosystems, Foster City, USA) and miRNA-specific RT primers provided with TaqMan microRNA assays (Applied Biosystems). Q-RT-PCR for miRNAs was performed using the TaqMan Universal PCR Master Mix according to the manufacturer's protocol. SDS software (Applied Biosystems) was used to determine cycle threshold (Ct) values. Expression level was quantified relative to β-actin for mRNA and RNU6B for miRNA using the 2-ΔΔCt method (12).

urothelial CSCs = assay: Sphere formation assay (CSC properties); type: cell-based, human; conditions: for sphere formation / sphere-forming ability: agent alone, bladder cancer cells
Description: Sphere formation was induced by culturing cells (2×10^4/well) in DMEM/Ham's F12 50/50 Mix (Mediatech) supplemented with B-27 (Life Technologies), 20 ng/mL FGF-basic (Peprotech), 20 ng/mL EGF (Peprotech). Cell culture was performed in ultra-low attachment 6 well plates (Corning, Lowell, USA) for 10 days. The medium was replaced every other day. Sphere formation was evaluated using the inverted phase-contrast microscope, and single sphere with a diameter larger than 100 μm was counted using NIS-Elements Microscope Imaging Software. To redifferentiate spheres, spheres were plated in standard growth medium with 10% FBS in dishes supporting cell attachment, and incubated for 7 days. For self-renewal assay, primary spheres were collected by gentle centrifugation (5 min at 400×g), dissociated with Stempro Accutase Cell Dissociation Reagent (Life Technologies), and mechanically disrupted with a pipette. The cell suspension was sieved through 40 μm cell strainer cap filter to achieve a single-cell suspension, and then equal numbers of alive cells were plated in ultralow attachment plates to generate the second spheres. Again, spheres were counted on day 14 and digested to generate the third Spheres. All the experiments were performed in triplicate and repeated at least three times.

SOX2 = SOX2 expression by western blotting / flow cytometry; type: cell-based, human
Description: (§1) Whole cell lysates were extracted using RIPA buffer (Thermo Scientific) supplemented with 10 μL/mL Halt™ Protease Inhibitor Cocktail Kit (Life Technologies) and 30 μL/mL Halt™ Phosphatase Inhibitor Cocktail Kit (Life Technologies). The protein concentrations were determined using a Pierce™ BCA Protein Assay Kit (Life Technologies), and the protein were separated on NuPAGE® 4-12% Bis-Tris Gel (Life Technologies) according to the manufacturer's protocol. COX2 (D5H5), NANOG (D73G4), OCT4 (D7O5Z), CD133 (A3G6K), Snail (C15D3), ZEB1 (D80D3), Vimentin (D21H3), CDH2 (D4R1H), CDH1 (24E10), p-EGFR (D7A5), EGFR (D38B1), p-AKT (D9E), AKT (cat #, 9272), p-ERK (D13.14.4E), ERK (137F5), p-YAP1 (D9W2I), p-Src (cat #, 2101), Src (36D10), DNMT1 (D63A6), DNMT3A (D23G1), and DNMT3B (D7O7O) antibodies were obtained from Cell Signaling Technology (Danvers, Mass., USA), except for SOX2 (EPR3131; Abcam, Cambridge, USA), YAP1 (ab52771; Abcam), CD24 (cat #, AF5247-SP; R&D Systems, Minneapolis USA) and β-actin (A2228; Sigma-Aldrich). Secondary horseradish peroxidase (HRP)-conjugated antibodies were obtained from Cell Signaling Technology, and chemiluminescent detection of HRP-labeled antibodies was performed using Amersham ECL Prime Western Blotting Detection Reagent (GE Healthcare, Piscataway, USA). As loading control, β-actin was used.
For extracellular staining, cells (1×10^6/100 μL stain buffer) were incubated with PE-Vio770-conjugated anti-human CD133 (293C3; Miltenyi Biotec, Auburn, USA) or PE-conjugated anti-human CD24 antibody (cat #, 560991; BD Biosciences) for 30 min at 4° C. in dark. PE-Vio770-conjugated Isotype (cat #, 130-098-563; Miltenyi Biotec) and PE-conjugated IgG2a, κ Isotype (cat #, 555574; BD Biosciences) were used as control for CD133 and CD24 staining, respectively. Staining for intracellular SOX2 was carried out using the BD Cytofix/Cytoperm Fixation/Permeabilization Kit (BD Biosciences) according to manufacturer's protocol. The cells were incubated with Alexa Fluor 647-conjugated anti-SOX2 antibody (cat #, 560302; BD Biosciences) for 40 min at 4° C. in dark. Alexa Fluor 647-conjugated anti-IgG2a, κ Isotype (cat #, 558053; BD Biosciences) was used as control. Data were acquired on a BD FACSCalibur flow cytometer (BD Biosciences) using BD CellQuest Pro software (BD Biosciences) and analyzed with FlowJo software v10.1 (Tree Star, Ashland, USA).

DNMT 1 and 3A = assay: Western blotting of DNMTs; type: cell-based, human
Description: as §1

panel of miRNAs = assay: Expression of a panel of miRNAs in BFTC 905 cells; type: cell-based, human
Description: Total RNA from cell lines was isolated using the RNeasy Plus Mini kit (Qiagen, Valencia, USA) according to the manufacturer's protocol. Total RNA extraction from bladder tissue was performed with the QIAzol Lysis Reagent (Qiagen) followed by phenol extraction and ethanol precipitation. Total RNA was eluted in DEPC treated water and stored at −80° C. Total RNA extraction from urine was performed using the MirVana miRNA Isolation Kit (Ambion, Austin, USA). These total RNA were converted to cDNA using the SuperScript III First-Strand Synthesis System (Life technologies, Carlsbad, USA), which was then used as a template for Q-RT-PCR. Q-RT-PCR was performed using the Fast SYBR Green Master Mix (Thermo Fisher Scientific, Waltham, USA) on a 7900HT Fast Real-Time PCR System (Life technologies) in triplicate. Micro RNA (miRNA) extraction was performed using the MirVana miRNA Isolation Kit, and was reverse transcribed using TaqMan reverse transcription kit (Applied Biosystems, Foster City, USA) and miRNA-specific RT primers provided with TaqMan microRNA assays (Applied Biosystems). Q-RT-PCR for miRNAs was performed using the TaqMan Universal PCR Master Mix according to the manufacturer's protocol. SDS software (Applied Biosystems) was used to determine cycle threshold (Ct) values. Expression level was quantified relative to β-actin for mRNA and RNU6B for miRNA using the 2-ΔΔCt method (12).

YAP1 = YAP1 expression by western blotting; type: cell-based, human
Description: as §1

[1] = Body weight of treated mice; type: in vivo; conditions: mouse, in vivo
Description: For celecoxib and/or VP treatment, celecoxib (5 mg/kg) was administered via intraperitoneal (i.p.) injection once a day (17), and VP (50 mg/kg) was administered via i.p. every other day (18). EP4 antagonist ONO-AE3-208 (10 mg/kg) was administered via i.p. once a day (19). Control was applied with same volume (100 μL per injection) of 10% dimethyl sulphoxide in […] (Sigma-Aldrich). For GEM and CDDP (GC) treatment (i.p.), CDDP (6 mg/kg) was only applied after the first GEM (60 mg/kg) treatment on day 2, followed by three consecutive treatments of GEM on day 5, 8 and 11 (17). The next cycle was started on day 18, and the treatment was continued until tumor reached 2 cm in diameter. For erlotinib treatment, the mice were treated once a day, 6 days per week, by oral gavage with erlotinib (100 mg/kg) or control (PBS containing 0.5% methyl cellulose (Sigma-Aldrich) and 0.1% TWEEN 80) (20). Tumor size was measured at least every three days. […] To establish xenograft model with acquired resistance to erlotinib, erlotinib sensitive 5637 cells were injected subcutaneously into the both flanks of 4-5 week-old NSG mice, and the tumors were consecutively passaged from NSG mice treated with erlotinib and celecoxib until the development of refractory tumors. […]

COX2 = COX2 expression by western blotting; type: cell-based, human; conditions: agent alone; bladder cancer cells
Description: Whole cell lysates were extracted using RIPA buffer (Thermo Scientific) supplemented with 10 μL/mL Halt™ Protease Inhibitor Cocktail Kit (Life Technologies) and 30 μL/mL Halt™ Phosphatase Inhibitor Cocktail Kit (Life Technologies). […] Secondary horseradish peroxidase (HRP)-conjugated antibodies were obtained from Cell Signaling Technology, and chemiluminescent detection of HRP-labeled antibodies was performed using Amersham ECL Prime Western Blotting Detection Reagent (GE Healthcare, Piscataway, USA). As loading control, β-actin was used.

[2] = agent alone, bladder cancer cells
[3] = PGE2 added to celecoxib-treated cells

SMILES: Nc1ncn([C@H]2C[C@H](O)[C@@H](CO)O2)c(=O)n1 [5-Aza-dC, 5-Aza-2′-deoxycytidine]
- promoter methylation of the let-7 host gene (MIRLET7BHG promoter): demethylated
- let-7 expression (let-7): restoration

SMILES: CC(C(=O)Nc1cc(C#N)ccc1CCCC(=O)O)c1ccc(F)c2ccccc12 (centres unmarked) [EP4-specific antagonist, ONO-AE3-208]
- sphere formation / sphere-forming ability (urothelial CSCs): dramatic reduction
- SOX2 expression (SOX2; [2]): dramatic reduction

SMILES: CCCCC[C@H](O)/C=C/[C@H]1[C@H](O)CC(=O)[C@@H]1C/C=C\CCCC(=O)O [PGE2, Prostaglandin E2]
- sphere-forming ability (urothelial CSCs; [3]): restored
- promoter methylation of the let-7 host gene (MIRLET7BHG promoter): Promoter methylation of the let-7 host gene was observed
- DNMT 1 and 3A expression (DNMT 1 and 3A): upregulated
- SOX2 expression (SOX2; [3]): restored
- let-7 expression (let-7): reduced
- expression of several miRNAs (panel of miRNAs): reduced

SMILES: CC(C)(C)n1nc(-c2ccc(Cl)cc2)c2c(N)ncnc21 [Src inhibitor, PP2]
- YAP1 expression (YAP1; Src inhibitor added to COX2 inhibitor-treated cells): downregulated

SMILES: C=Cc1c(C)c2cc3nc(cc4[nH]c(cc5nc(cc1[nH]2)C(C)=C5CCC(=O)O)c(CCC(=O)OC)c4C)[C@@]1(C)C3=CC=C(C(=O)OC)[C@H]1C(=O)OC [VP, 3-[(23S,24R)-14-ethenyl-5-(3-methoxy-3-oxopropyl)-22,23-bis(methoxycarbonyl)-4,10,15,24-tetramethyl-25,26,27,28-tetraazahexacyclo[16.6.1.1^3,6.1^8,11.1^13,16.0^19,24]octacosa-1,3,5,7,9,11(27),12,14,16,18(25),19,21-dodecaen-9-yl]propanoic acid]
- body weight loss of mice [1]: did not observe body weight loss
- COX2 expression (COX2): induced
- SOX2 expression (SOX2; [2]): reduced

SMILES: N.N.[Cl][Pt][Cl] [cisplatin, Cisplatin]
- sphere formation / sphere-forming ability (urothelial CSCs): increased
- YAP1 expression (YAP1; [2]): overexpression
- COX2 expression (COX2): overexpression
- SOX2 expression (SOX2; [2]): overexpression

SMILES: CCc1cccc2c3c([nH]c12)C(CC)(CC(=O)O)OCC3 (centres unmarked) [etodolac, Etodolac]
- sphere formation / sphere-forming ability (urothelial CSCs): dramatic reduction
- SOX2 expression (SOX2; [2]): dramatic reduction
